Data on one molecule can be found in ChEMBL document CHEMBL1138732, “Evans Blue is an inhibitor of nuclear factor-kappa B (NF-kappaB)-DNA binding” (Bioorg Med Chem Lett, 2004).

SMILES strings stand for the structures.

The test addresses T1, Nuclear factor NF-kappa-B p105 subunit (Homo sapiens) (UniProt P19838).
T1 sequence (whole entry): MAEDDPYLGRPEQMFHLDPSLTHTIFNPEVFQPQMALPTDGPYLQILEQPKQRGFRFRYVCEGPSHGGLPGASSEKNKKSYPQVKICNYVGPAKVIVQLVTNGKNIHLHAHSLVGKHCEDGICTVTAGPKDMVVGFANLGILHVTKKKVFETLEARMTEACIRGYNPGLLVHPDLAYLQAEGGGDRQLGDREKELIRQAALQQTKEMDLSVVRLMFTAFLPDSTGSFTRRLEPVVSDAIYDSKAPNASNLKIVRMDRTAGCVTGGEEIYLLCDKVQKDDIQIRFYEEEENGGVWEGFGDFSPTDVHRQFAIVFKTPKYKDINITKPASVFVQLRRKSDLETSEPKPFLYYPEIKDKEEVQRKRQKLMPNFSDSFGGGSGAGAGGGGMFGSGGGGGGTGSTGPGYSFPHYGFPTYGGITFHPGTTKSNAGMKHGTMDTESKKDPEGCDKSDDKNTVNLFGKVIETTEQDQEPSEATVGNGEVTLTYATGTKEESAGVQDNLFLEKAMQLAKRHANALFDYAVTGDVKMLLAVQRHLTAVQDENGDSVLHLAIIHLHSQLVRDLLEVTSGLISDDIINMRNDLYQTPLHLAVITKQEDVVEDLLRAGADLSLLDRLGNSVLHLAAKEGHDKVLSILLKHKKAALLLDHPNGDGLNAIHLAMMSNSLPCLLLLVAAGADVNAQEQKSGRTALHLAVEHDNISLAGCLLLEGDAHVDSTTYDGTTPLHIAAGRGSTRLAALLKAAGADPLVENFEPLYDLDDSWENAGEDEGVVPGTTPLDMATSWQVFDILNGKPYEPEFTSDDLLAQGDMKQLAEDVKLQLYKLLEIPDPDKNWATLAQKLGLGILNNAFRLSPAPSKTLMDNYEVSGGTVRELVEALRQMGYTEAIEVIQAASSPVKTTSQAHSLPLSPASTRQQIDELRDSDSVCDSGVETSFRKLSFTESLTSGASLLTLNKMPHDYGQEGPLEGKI
The experiment in a line: inhibitory effect on the DNA binding of Nuclear factor kappa B; Active.

`Cc1cc(-c2ccc(/N=N/c3ccc4c(S(=O)(=O)O)cc(S(=O)(=O)O)c(N)c4c3O)c(C)c2)ccc1/N=N/c1ccc2c(S(=O)(=O)O)cc(S(=O)(=O)O)c(N)c2c1O` showed a Concentration of 100 µM.
